According to patent US20260022142A1, “MACROCYCLIC IMMUNOMODULATORS” (Bristol-Myers Squibb Company, priority 2022, published 2026):
pIC50: −log10 of the molar value. Numbered stars: 1 amine (or outer) side, 2 acyl side, 3 side chain; on linkers, the order of the positions; unused ones are H or OH. Bridge positions count the residues as written; N and C are the ends. Square brackets hold non-standard residues; d marks the D form. Peptide text beside a SMILES is read from it. * marks the point of attachment. ξ: configuration not given here. Phe(3-CF3) = N[C@@H](Cc1cccc(C(F)(F)F)c1)C(=O)O; Phe(4-COOH) = N[C@@H](Cc1ccc(C(=O)O)cc1)C(=O)O; Bip = N[C@@H](Cc1ccc(-c2ccccc2)cc1)C(=O)O; NH(CH2)14COOH = O=C(O)CCCCCCCCCCCCCCN*; Phe(3-Me) = Cc1cccc(C[C@H](N)C(=O)O)c1; γGlu = O=C(O)[C@H](CCC(=O)[*:2])N[*:1]; βAsp = O=C(O)[C@H](CC(=O)[*:2])N[*:1]; NH(CH2)12COOH = O=C(O)CCCCCCCCCCCCN*; Val(3-OH) = CC(C)(O)[C@H](N)C(=O)O; Cha = N[C@@H](CC1CCCCC1)C(=O)O; Ile(3ξ) = CCC(C)[C@H](N)C(=O)O; Dap(Me) = CNC[C@H](N)C(=O)O; dDab = NCC[C@@H](N)C(=O)O; Carboxymethyl = O=C(O)C*; Nle = CCCC[C@H](N)C(=O)O; Orn = NCCC[C@H](N)C(=O)O; Dab = NCC[C@H](N)C(=O)O; AEEA = NCCOCCOCC(=O)O

Target: T1, PD-1/PD-L1 interaction (PE-labeled human PD-L1-Ig binding to Jurkat cell line over-expressing human PD-1) (Homo sapiens, UniProt Q15116)
T1 construct: expressed in transfected cells; host or cells: Jurkat
T1 sequence (Q15116 25-288): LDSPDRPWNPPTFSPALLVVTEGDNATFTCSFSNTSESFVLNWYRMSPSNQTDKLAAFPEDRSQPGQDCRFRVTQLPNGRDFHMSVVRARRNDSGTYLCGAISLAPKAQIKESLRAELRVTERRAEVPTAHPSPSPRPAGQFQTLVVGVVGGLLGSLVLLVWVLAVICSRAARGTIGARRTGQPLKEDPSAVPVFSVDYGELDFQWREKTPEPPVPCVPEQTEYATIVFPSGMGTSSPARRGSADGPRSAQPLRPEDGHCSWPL
Assay: Jurkat-PD-1 Cell Binding High-Content Screening Assay (CBA)
Format: cell-based
Details: Jurkat cell line over-expressing human PD-1; PE-labeled PD-L1-Ig 20 nM final; read-out: Jurkat hPD1-PDL1 IC50
Procedure, shortened: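 Human PD-L1-Ig carrying a covalent PE label on its Ig tag serves as the probe, applied at 20 nM final to compound-treated (2 h, 37° C) Jurkat-hPD-1 cells in medium with 10% fetal calf serum. After one hour, fixation and nuclear staining precede high-content image analysis.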

pIC50 | Structure (SMILES)
6.57 | CC(C)C[C@H]1NC(=O)[C@H](CCCN)NC(=O)[C@H](Cc2ccc(C(=O)O)cc2)NC(=O)[C@H](Cc2ccc(-c3ccccc3)cc2)NC(=O)[C@H](Cc2ccc(C(=O)O)cc2)NC(=O)[C@H](Cc2cccc(C(F)(F)F)c2)NC(=O)[C@H](CC(=O)O)NC(=O)[C@H](Cc2ccc(OCC(=O)O)cc2)NC(=O)[C@H](Cc2cnc[nH]2)NC(=O)CSC[C@@H](C(=O)N[C@@H](CCN)C(=O)NCCOCCOCC(=O)N[C@@H](CC(=O)N[C@@H](CC(=O)O)C(=O)NCCCCCCCCCCCCCCC(=O)O)C(=O)O)NC(=O)[C@H](CCC(=O)O)NC(=O)[C@H](C(C)(C)O)NC(=O)[C@H](CC2CCCCC2)NC(=O)[C@H](CCN)NC1=O [Compound 3889] ({CH2CO}-HY(Carboxymethyl)D[Phe(3-CF3)][Phe(4-COOH)][Bip][Phe(4-COOH)][Orn][dL][Dab][Cha][Val(3-OH)]EC[Dab][AEEA][βAsp]D-{NH(CH2)14COOH}; thioether N-14)
6.41 | Cc1cccc(C[C@@H]2NC(=O)[C@H](CC(=O)O)NC(=O)[C@H](Cc3ccc(OCC(=O)O)cc3)NC(=O)[C@H](CC(C)C)NC(=O)CSC[C@@H](C(=O)N[C@@H](CCN)C(=O)NCCOCCOCC(=O)N[C@@H](CCC(=O)O)C(=O)N[C@@H](CCC(=O)NCCOCCOCC(=O)NCCCCCCCCCCCCCCC(=O)O)C(=O)O)NC(=O)[C@H](CC(=O)O)NC(=O)[C@H](C(C)(C)O)NC(=O)[C@H](CC3CCCCC3)NC(=O)[C@H](CCN)NC(=O)[C@@H](CC(C)C)NC(=O)[C@H](CCCN)NC(=O)[C@H](Cc3ccc(C(=O)O)cc3)NC(=O)[C@H](Cc3ccc(-c4ccccc4)cc3)NC(=O)[C@H](Cc3ccc(C(=O)O)cc3)NC2=O)c1 [Compound 3892] ({CH2CO}-LY(Carboxymethyl)D[Phe(3-Me)][Phe(4-COOH)][Bip][Phe(4-COOH)][Orn][dL][Dab][Cha][Val(3-OH)]DC[Dab][AEEA]E[γGlu][AEEA]-{NH(CH2)14COOH}; thioether N-14)
6.98 | CCCC[C@@H]1NC(=O)CSC[C@@H](C(=O)N[C@@H](CCN)C(=O)NCCOCCOCC(=O)N[C@@H](CO)C(=O)N[C@H](CCC(=O)NCCCCCCCCCCCCCCC(=O)O)C(=O)O)NC(=O)[C@H](Cc2cnc[nH]2)NC(=O)[C@H](C(C)(C)O)NC(=O)[C@H](CC2CCCCC2)NC(=O)[C@H](CCN)NC(=O)[C@@H](CC(C)C)NC(=O)[C@H](CCCN)NC(=O)[C@H](Cc2ccc(OCC(=O)O)cc2)NC(=O)[C@H](Cc2ccc(-c3ccccc3)cc2)NC(=O)[C@H](Cc2ccc(C(=O)O)cc2)NC(=O)[C@H](Cc2cccc(C)c2)NC(=O)[C@H](CC(=O)O)NC(=O)[C@H](Cc2ccc(OCC(=O)O)cc2)NC1=O [Compound 3894] ({CH2CO}-[Nle]Y(Carboxymethyl)D[Phe(3-Me)][Phe(4-COOH)][Bip]Y(Carboxymethyl)[Orn][dL][Dab][Cha][Val(3-OH)]HC[Dab][AEEA]S[dE](NH(CH2)14COOH)-OH; thioether N-14)

The next lines start with the molecule.

Structure (SMILES) | pIC50
CCC(C)[C@@H]1NC(=O)[C@H](Cc2ccc(-c3ccccc3)cc2)NC(=O)[C@H](C(C)C)NC(=O)[C@H](Cc2c[nH]c3ccccc23)NC(=O)[C@H](CC(=O)O)NC(=O)[C@H](Cc2ccc(OCC(=O)O)cc2)NC(=O)[C@H](Cc2ccc(OCC(=O)O)cc2)NC(=O)CSC[C@@H](C(=O)N[C@H](C)C(=O)NCCOCCOCC(=O)NCCCCCCCCCCCCCCC(=O)O)NC(=O)[C@H](CCCNC(=N)N)NC(=O)[C@H](C(C)(C)O)NC(=O)[C@H](CC2CCCCC2)NC(=O)[C@H](CCN)NC(=O)[C@@H](CC(C)C)NC(=O)[C@H](CCCN)NC1=O (stereo partly drawn) [Compound 3886] ({CH2CO}-Y(Carboxymethyl)Y(Carboxymethyl)DWV[Bip][Ile(3ξ)][Orn][dL][Dab][Cha][Val(3-OH)]RC[dA][AEEA]-{NH(CH2)14COOH}; thioether N-14) | 6.70
Cc1cccc(C[C@@H]2NC(=O)[C@H](CC(=O)O)NC(=O)[C@H](Cc3ccc(C(=O)O)cc3)NC(=O)[C@H](CCCN)NC(=O)CSC[C@@H](C(=O)N[C@@H](CCN)C(=O)NCCOCCOCC(=O)NCCOCCOCC(=O)N[C@@H](CCC(=O)O)C(=O)N[C@@H](CC(=O)NCCCCCCCCCCCCCCC(=O)O)C(=O)O)NC(=O)[C@H](Cc3cnc[nH]3)NC(=O)[C@H](C(C)(C)O)NC(=O)[C@H](CC3CCCCC3)NC(=O)[C@H](CCN)NC(=O)[C@@H](CC(C)C)NC(=O)[C@H](CCCN)NC(=O)[C@H](Cc3ccc(C(=O)O)cc3)NC(=O)[C@H](Cc3ccc(-c4ccccc4)cc3)NC(=O)[C@H](Cc3ccc(C(=O)O)cc3)NC2=O)c1 [Compound 3887] ({CH2CO}-[Orn][Phe(4-COOH)]D[Phe(3-Me)][Phe(4-COOH)][Bip][Phe(4-COOH)][Orn][dL][Dab][Cha][Val(3-OH)]HC[Dab][AEEA][AEEA]ED(NH(CH2)14COOH)-OH; thioether N-14) | 7.25
CC(=O)NCCCC[C@@H]1NC(=O)[C@H](C(C)(C)O)NC(=O)[C@H](CC2CCCCC2)NC(=O)[C@H](CCN)NC(=O)[C@@H](CC(C)C)NC(=O)[C@H](CCCN)NC(=O)[C@H](Cc2ccc(C(=O)O)cc2)NC(=O)[C@H](Cc2ccc(-c3ccccc3)cc2)NC(=O)[C@H](Cc2ccc(C(=O)O)cc2)NC(=O)[C@H](Cc2cccc(C(F)(F)F)c2)NC(=O)[C@H](CC(=O)O)NC(=O)[C@H](Cc2ccc(OCC(=O)O)cc2)NC(=O)[C@H](Cc2cnc[nH]2)NC(=O)CSC[C@@H](C(=O)N[C@@H](CCN)C(=O)NCCOCCOCC(=O)N[C@@H](CC(=O)N[C@@H](CC(=O)O)C(=O)NCCCCCCCCCCCCCCC(=O)O)C(=O)O)NC1=O [Compound 3888] ({CH2CO}-HY(Carboxymethyl)D[Phe(3-CF3)][Phe(4-COOH)][Bip][Phe(4-COOH)][Orn][dL][Dab][Cha][Val(3-OH)]K(Ac)C[Dab][AEEA][βAsp]D-{NH(CH2)14COOH}; thioether N-14) | 6.93
CC(C)C[C@H]1NC(=O)[C@H](CCCN)NC(=O)[C@H](Cc2ccc(C(=O)O)cc2)NC(=O)[C@H](Cc2ccc(-c3ccccc3)cc2)NC(=O)[C@H](Cc2ccc(C(=O)O)cc2)NC(=O)[C@H](Cc2cccc(C(F)(F)F)c2)NC(=O)[C@H](CC(=O)O)NC(=O)[C@H](Cc2ccc(OCC(=O)O)cc2)NC(=O)[C@H](C(C)C)NC(=O)CSC[C@@H](C(=O)N[C@@H](CCN)C(=O)NCCOCCOCC(=O)N[C@@H](CCC(=O)O)C(=O)N[C@@H](CCC(=O)NCCCCCCCCCCCCCCC(=O)O)C(=O)O)NC(=O)[C@H](CC(=O)O)NC(=O)[C@H](C(C)(C)O)NC(=O)[C@H](CC2CCCCC2)NC(=O)[C@H](CCN)NC1=O [Compound 3890] ({CH2CO}-VY(Carboxymethyl)D[Phe(3-CF3)][Phe(4-COOH)][Bip][Phe(4-COOH)][Orn][dL][Dab][Cha][Val(3-OH)]DC[Dab][AEEA]EE(NH(CH2)14COOH)-OH; thioether N-14) | 6.36
CCCC[C@@H]1NC(=O)CSC[C@@H](C(=O)N[C@@H](CCN)C(=O)NCCOCCOCC(=O)N[C@@H](CO)C(=O)N[C@H](CCC(=O)NCCCCCCCCCCCCCCC(=O)O)C(=O)O)NC(=O)[C@H](CC(=O)O)NC(=O)[C@H](C(C)(C)O)NC(=O)[C@H](CC2CCCCC2)NC(=O)[C@H](CCN)NC(=O)[C@@H](CC(C)C)NC(=O)[C@H](CCCN)NC(=O)[C@H](Cc2ccc(OCC(=O)O)cc2)NC(=O)[C@H](Cc2ccc(-c3ccccc3)cc2)NC(=O)[C@H](Cc2ccc(C(=O)O)cc2)NC(=O)[C@H](Cc2cccc(C)c2)NC(=O)[C@H](CC(=O)O)NC(=O)[C@H](Cc2ccc(OCC(=O)O)cc2)NC1=O [Compound 3893] ({CH2CO}-[Nle]Y(Carboxymethyl)D[Phe(3-Me)][Phe(4-COOH)][Bip]Y(Carboxymethyl)[Orn][dL][Dab][Cha][Val(3-OH)]DC[Dab][AEEA]S[dE](NH(CH2)14COOH)-OH; thioether N-14) | 6.43
CNC[C@@H]1NC(=O)CSC[C@@H](C(=O)N[C@@H](CCN)C(=O)NCCOCCOCC(=O)N[C@@H](CO)C(=O)NCCCCCCCCCCCCCCC(=O)O)NC(=O)[C@H](CCC(=O)O)NC(=O)[C@H](C(C)C)NC(=O)[C@H](CC2CCCCC2)NC(=O)[C@H](CCN)NC(=O)[C@@H](CC(C)C)NC(=O)[C@H](CCCN)NC(=O)[C@H](Cc2ccc(C(=O)O)cc2)NC(=O)[C@H](Cc2ccc(-c3ccccc3)cc2)NC(=O)[C@H](Cc2ccc(C(=O)O)cc2)NC(=O)[C@H](Cc2cccc(C(F)(F)F)c2)NC(=O)[C@H](CC(=O)O)NC(=O)[C@H](Cc2ccc(OCC(=O)O)cc2)NC1=O [Compound 3895] ({CH2CO}-[Dap(Me)]Y(Carboxymethyl)D[Phe(3-CF3)][Phe(4-COOH)][Bip][Phe(4-COOH)][Orn][dL][Dab][Cha]VEC[Dab][AEEA]S-{NH(CH2)14COOH}; thioether N-14) | 7.31
CNC[C@@H]1NC(=O)CSC[C@@H](C(=O)N[C@@H](CCN)C(=O)NCCOCCOCC(=O)NCCCCCCCCCCCCCCC(=O)O)NC(=O)[C@H](CCC(=O)O)NC(=O)[C@H](C(C)C)NC(=O)[C@H](CC2CCCCC2)NC(=O)[C@H](CCN)NC(=O)[C@@H](CC(C)C)NC(=O)[C@H](CCCN)NC(=O)[C@H](Cc2ccc(C(=O)O)cc2)NC(=O)[C@H](Cc2ccc(-c3ccccc3)cc2)NC(=O)[C@H](Cc2ccc(C(=O)O)cc2)NC(=O)[C@H](Cc2cccc(C(F)(F)F)c2)NC(=O)[C@H](CC(=O)O)NC(=O)[C@H](Cc2ccc(C(=O)O)cc2)NC1=O [Compound 3896] ({CH2CO}-[Dap(Me)][Phe(4-COOH)]D[Phe(3-CF3)][Phe(4-COOH)][Bip][Phe(4-COOH)][Orn][dL][Dab][Cha]VEC[Dab][AEEA]-{NH(CH2)14COOH}; thioether N-14) | 6.65
CCCC[C@@H]1NC(=O)CSC[C@@H](C(=O)N[C@H](CCN)C(=O)NCCOCCOCC(=O)N[C@@H](CCC(=O)NCCOCCOCC(=O)NCCCCCCCCCCCCC(=O)O)C(=O)O)NC(=O)[C@H](CCC(=O)O)NC(=O)[C@H](C(C)C)NC(=O)[C@H](CC2CCCCC2)NC(=O)[C@H](CCN)NC(=O)[C@@H](CC(C)C)NC(=O)[C@H](CCCN)NC(=O)[C@H](Cc2ccc(OCC(=O)O)cc2)NC(=O)[C@H](Cc2ccc(-c3ccccc3)cc2)NC(=O)[C@H](Cc2ccc(C(=O)O)cc2)NC(=O)[C@H](Cc2cccc(C(F)(F)F)c2)NC(=O)[C@H](CC(=O)O)NC(=O)[C@H](Cc2ccc(OCC(=O)O)cc2)NC1=O [Compound 3897] ({CH2CO}-[Nle]Y(Carboxymethyl)D[Phe(3-CF3)][Phe(4-COOH)][Bip]Y(Carboxymethyl)[Orn][dL][Dab][Cha]VEC[dDab][AEEA][γGlu][AEEA]-{NH(CH2)12COOH}; thioether N-14) | 7.20
